Data from patent US6472348B1, “Pyridone derivatives and herbicides” (Kumiai Chemical Industry Co., Ltd., priority 1996, dated 2002).

How the values were obtained:
Format in all cases: in vivo
pale smartweed (Po) = assay: Test Example 11: crop plant selectivity by upland field foliage treatment (corn), herbicidal effects; parameters: scale not given here
How it was run: (§1)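 Corn and the weed species were sown together in sand-filled pots and grown in a greenhouse for 2 weeks before foliar treatment. Herbicidal effect was scored on day 14 after treatment against a graded standard scale, with corn phytotoxicity scored alongside.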

China jute (Ab) [1] = assay: as above; parameters: scale not given here
How it was run: as §1

[2] = tested on: common lambsquarters (Ch); assay: as above; parameters: scale not given here
How it was run: as §1

China jute (Ab) [3] = assay: Test Example 6: crop plant selectivity by upland field soil treatment (soybean), herbicidal effects; parameters: scale not given here; conditions: 21st day after application
How it was run: (§2)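 Scoring took place 21 days after treatment using a set grading standard, covering both weed control and soybean injury. Seeds of soybean and weed species went into sand-filled pots under a soil cover before soil treatment and greenhouse culture.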

[4] = tested on: common lambsquarters (Ch); assay: as above; parameters: scale not given here; conditions: 21st day after application
How it was run: as §2

green foxtail (Se) = assay: as above; parameters: scale not given here; conditions: 21st day after application
How it was run: as §2

barnyardgrass (Ec) = assay: Test Example 1: herbicidal effects by paddy field soil treatment; conditions: 100 g of the active ingredient per 10 ares, 21st day after the application, index 0-5 of Table 47;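 note: grade of growth control; 5 = at least 90%; 4 = 70 to 90%; 3 = 50 to 70%; 2 = 30 to 50%; 1 = 10 to 30%; 0 = under 10%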
How it was run: (§3)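 Flooded paddy-soil pots (3 cm water) sown after puddling/leveling; treatment 100 g a.i./10 ares; greenhouse culture; herbicidal effect rated visually on a scoring scale at 21 d post-application.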

bulrush (Sc) = assay: as above; conditions: 100 g of the active ingredient per 10 ares, 21st day after the application, index 0-5 of Table 47;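 note: grade of growth control; 5 = at least 90%; 4 = 70 to 90%; 3 = 50 to 70%; 2 = 30 to 50%; 1 = 10 to 30%; 0 = under 10%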
How it was run: as §3

monochoria (Mo) = assay: as above; conditions: 100 g of the active ingredient per 10 ares, 21st day after the application, index 0-5 of Table 47;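 note: grade of growth control; 5 = at least 90%; 4 = 70 to 90%; 3 = 50 to 70%; 2 = 30 to 50%; 1 = 10 to 30%; 0 = under 10%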
How it was run: as §3

[5] = upland field foliage treatment (corn test), dose 1.6 g ai/10a, 14th day after treatment
[6] = pale smartweed, foliage treatment, dose 1.6 g ai/10a, evaluated on 14th day after treatment, index per Table 47
[7] = China jute, foliage treatment, dose 1.6 g ai/10a, evaluated on 14th day after treatment, index per Table 47
[8] = common lambsquarters, foliage treatment, dose 1.6 g ai/10a, evaluated on 14th day after treatment, index per Table 47
[9] = upland field foliage treatment (corn test), dose 0.1 g ai/10a, 14th day after treatment

SMILES | Herbicidal effects Po (pale smartweed (Po); [5]) | Herbicidal effects Ab (China jute (Ab) [1]; [5]) | Herbicidal effects Ch [2, 5] | Herbicidal effects Ab (China jute (Ab) [3]; dose 6.3 g ai/10a) | Herbicidal effects Ch ([4]; dose 6.3 g ai/10a) | Herbicidal effects Se (green foxtail (Se); dose 6.3 g ai/10a) | Herbicidal effects Ec (barnyardgrass (Ec)) | Herbicidal effects Sc (bulrush (Sc)) | Herbicidal effects Mo (monochoria (Mo)) | Herbicidal effects Ab (China jute (Ab) [3]; dose 1.6 g ai/10a) | Herbicidal effects Ch ([4]; dose 1.6 g ai/10a) | Herbicidal effects Se (green foxtail (Se); dose 1.6 g ai/10a) | Herbicidal effects Po (pale smartweed (Po); [6]) | Herbicidal effects Ab (China jute (Ab) [1]; [7]) | Herbicidal effects Ch [2, 8] | Herbicidal effects Po (pale smartweed (Po); [9]) | Herbicidal effects Ab (China jute (Ab) [1]; [9]) | Herbicidal effects Ch [2, 9]
CCOCOc1cc(-c2ccc(C(F)(F)F)n(C)c2=O)c(F)cc1Cl [1-181] | 5 | 5 | 5 | 5 | 5 | 5 | 5 | 5 | 5 | – | – | – | – | – | – | – | – | –
C#CC(C)Oc1cc(Cl)cc(F)c1-c1ccc(C(F)(F)F)n(C)c1=O (stereo not drawn) [1′-5] | 5 | 5 | 5 | 5 | 5 | 5 | 5 | 5 | 5 | 5 | 5 | 4 | – | – | – | – | – | –
C=CC(C)Oc1cc(-c2ccc(C(F)(F)F)n(C)c2=O)c(F)cc1Cl (stereo not drawn) [Compound 1-182] | 5 | 5 | 5 | 5 | 5 | 5 | 5 | 5 | 5 | – | – | – | – | – | – | – | – | –
CCON=Cc1cc(-c2ccc(C(F)(F)F)n(C)c2=O)c(F)cc1Cl [Compound 1-187] | 5 | 5 | 5 | 5 | 5 | 5 | 5 | 5 | 5 | – | – | – | – | – | – | – | – | –
CCOC(=O)CON=Cc1cc(-c2ccc(C(F)(F)F)n(C)c2=O)c(F)cc1Cl [Compound 1-191] | 5 | 5 | 5 | 5 | 5 | 5 | 5 | 5 | 5 | – | – | – | – | – | – | – | – | –
C=CC(O)c1cc(-c2ccc(C(F)(F)F)n(C)c2=O)c(F)cc1Cl (stereo not drawn) [Compound 1-197] | 5 | 5 | 5 | 5 | 5 | 5 | 5 | 5 | 5 | – | – | – | – | – | – | – | – | –
CSCOc1cc(-c2ccc(C(F)(F)F)n(C)c2=O)c(F)cc1Cl [Compound 1-208] | 5 | 5 | 5 | 5 | 5 | 5 | 5 | 5 | 5 | – | – | – | – | – | – | – | – | –
C#CCN1C(=O)COc2cc(Cl)c(-c3ccc(C(F)(F)F)n(C)c3=O)cc21 [Compound 2-25] | 5 | 5 | 5 | 5 | 5 | 5 | 5 | 5 | 5 | 5 | 5 | 5 | – | – | – | – | – | –
C=CCN1C(=O)COc2cc(Cl)c(-c3ccc(C(F)(F)F)n(C)c3=O)cc21 [Compound 2-26] | 5 | 5 | 5 | 5 | 5 | 5 | 5 | 5 | 5 | – | – | – | – | – | – | – | – | –
CCCc1cc2c(-c3ccc(C(F)(F)F)n(C)c3=O)c(F)cc(Cl)c2o1 [Compound 4-3] | 5 | 5 | 5 | 5 | 5 | 5 | 5 | 5 | 5 | – | – | – | – | – | – | – | – | –
CCc1cc2c(Cl)cc(F)c(-c3ccc(C(F)(F)F)n(C)c3=O)c2o1 [Compound 5-2] | – | – | – | 5 | 5 | 5 | 5 | 5 | 5 | – | – | – | 5 | 5 | 5 | – | – | –
C#CCN1C(=O)COc2cc(F)c(-c3cn(C)c(C(F)(F)F)cc3=O)cc21 [Compound 7-1] | – | – | – | 5 | 5 | 5 | 5 | 5 | 5 | – | – | – | 5 | 5 | 5 | – | – | –
CON=Cc1cc(-c2ccc(C(F)(F)F)n(C)c2=O)c(F)cc1Cl [Compound No. 1-72, 5-(1-methyl-6-trifluoromethyl-2(1H)-pyridon-3-yl)-2-chloro-4-fluorobenzaldehydeoxime-O-methyl ether] | 5 | 5 | 5 | 5 | 5 | 5 | 5 | 5 | 5 | 5 | 5 | 5 | – | – | – | – | – | –
Cn1c(C(F)(F)F)ccc(-c2cc(C#N)c(Cl)cc2F)c1=O [Compound No. 1-119, 3-(4-chloro-5-cyano-2-fluorophenyl)-1-methyl-6-trifluoromethyl-2(1H)-pyridone] | 5 | 4 | 5 | 5 | 5 | 5 | 5 | 5 | 5 | – | – | – | – | – | – | – | – | –
CCCC(=O)c1cc(-c2ccc(C(F)(F)F)n(C)c2=O)c(F)cc1Cl [Compound No. 1-194, 3-[4-chloro-2-fluoro-5-(1-oxobutyl)phenyl]-1-methyl-6-trifluoromethyl-2(1H)-pyridone] | 5 | 5 | 5 | 5 | 5 | 5 | 5 | 5 | 5 | – | – | – | – | – | – | – | – | –
C#CCN1C(=O)COc2cc(F)c(-c3ccc(C(F)(F)F)n(C)c3=O)cc21 [Compound No. 2-1, 3-[7-fluoro-2,3-dihydro-4-(2-propynyl)-1,4-benzoxazin-3-on-6-yl]-1-methyl-6-trifluoromethyl-2(1H)-pyridone] | – | – | – | 5 | 5 | 5 | 5 | 5 | 5 | 5 | 5 | 5 | – | – | – | 5 | 5 | 5
COCc1cc2c(-c3ccc(C(F)(F)F)n(C)c3=O)c(F)cc(Cl)c2o1 [Compound No. 4-4, 3-(7-chloro-5-fluoro-2-methoxymethylbenzofuran-4-yl)-1-methyl-6-trifluoromethyl-2-(1H)-pyridone] | 5 | 5 | 5 | 5 | 5 | 5 | 5 | 5 | 5 | – | – | – | – | – | – | – | – | –
